Source: patent publication EP0229313A2, “Compound related to antibiotic TAN-749 and their production” (priority 1985, dated 1987)
Values after ≈ are worked out from the molar mass of the structure shown. Read-outs that look alike come from different tables or passages of the source.

Legend:
Escherichia coli 0-111 = assay: Therapeutic effects on infectious diseases in mice (Table 6); assay type: in vivo; conditions: mice infected with Escherichia coli 0-111, route Subcutaneous, dihydrochlorides
[1] = system: Staphylococcus aureus TN 2648; assay: MIC against clinically isolated Staphylococcus aureus strains (Table 5); assay type: cell-based; conditions: TN2648, strain TN 2648, resistance type Methicillin, agar dilution method, Mueller Hinton medium, inoculum 10^6CFU/mℓ, read-out: Minimal Inhibitory Concentration
[2] = system: Proteus morganii IFO 3168; assay: Antibacterial spectrum, MIC on agar (Table 3); assay type: cell-based; conditions: Morganella morganii, IFO3168, Bacto-Antibiotic Medium 3 + yeast extract + agar, inoculum approx. 10^6 CFU/mℓ, dihydrochlorides, read-out: Minimal Inhibitory Concentration
Source text: (§1) Tables 3 and 4 show the antibacterial spectra of TAN-749A, B, C, and D (dihydrochlorides) against various microbes.

[3] = system: Pseudomonas aeruginosa IFO 3080; assay: Antibacterial spectrum, MIC on agar (Table 3); assay type: cell-based; conditions: Bacto-Antibiotic Medium 3 + yeast extract + agar, inoculum approx. 10^6 CFU/mℓ, dihydrochlorides
Source text: as §1

[4] = system: Staphylococcus aureus FDA 209P; assay: Antibacterial spectrum, MIC on agar (Table 3); assay type: cell-based; conditions: Bacto-Antibiotic Medium 3 + yeast extract + agar, inoculum approx. 10^6 CFU/mℓ, dihydrochlorides
Source text: as §1

[5] = system: Citrobacter freundii IFO 12681; assay: Antibacterial spectrum, MIC on agar (Table 3); assay type: cell-based; conditions: Bacto-Antibiotic Medium 3 + yeast extract + agar, inoculum approx. 10^6 CFU/mℓ, dihydrochlorides
Source text: as §1

[6] = system: Klebsiella pneumoniae IFO 3317; assay: Antibacterial spectrum, MIC on agar (Table 3); assay type: cell-based; conditions: IFO3317, Bacto-Antibiotic Medium 3 + yeast extract + agar, inoculum approx. 10^6 CFU/mℓ, dihydrochlorides, read-out: Minimal Inhibitory Concentration
Source text: as §1

[7] = system: Proteus vulgaris IFO 3988; assay: Antibacterial spectrum, MIC on agar (Table 3); assay type: cell-based; conditions: IFO3988, Bacto-Antibiotic Medium 3 + yeast extract + agar, inoculum approx. 10^6 CFU/mℓ, dihydrochlorides, read-out: Minimal Inhibitory Concentration
Source text: as §1

[8] = system: Escherichia coli NIHJ JC2; assay: Antibacterial spectrum, MIC on agar (Table 3); assay type: cell-based; conditions: NIHJJC2, Bacto-Antibiotic Medium 3 + yeast extract + agar, inoculum approx. 10^6 CFU/mℓ, dihydrochlorides, read-out: Minimal Inhibitory Concentration
Source text: as §1

Escherichia coli T7 [9] = assay: Therapeutic effects on infectious diseases in mice (Table 6); assay type: in vivo; conditions: sc; mice infected with Escherichia coli T7; route Subcutaneous; dihydrochlorides
[10] = system: Staphylococcus aureus 308A-1; assay: as above; assay type: in vivo; conditions: 308A1, po, mice infected with Staphylococcus aureus 308A-1, dihydrochlorides
[11] = system: Staphylococcus aureus 1840-2; assay: MIC against clinically isolated Staphylococcus aureus strains (Table 5); assay type: cell-based; conditions: 18402, strain 1840-2, resistance type Penicillin G, agar dilution method, Mueller Hinton medium, inoculum 10^6CFU/mℓ, read-out: Minimal Inhibitory Concentration
Escherichia coli T7 [12] = assay: Antibacterial spectrum, MIC by agar dilution method (Table 4); assay type: cell-based; conditions: inoculum 10^8 CFU/mℓ, dihydrochlorides
Source text: as §1

[13] = system: Pseudomonas aeruginosa P9; assay: as above; assay type: cell-based; conditions: medium B-TSA (10% horse serum/TSA), inoculum 10^8 CFU/mℓ, dihydrochlorides, read-out: Minimal Inhibitory Concentration
Source text: as §1

[14] = system: Staphylococcus aureus TN 2613; assay: MIC against clinically isolated Staphylococcus aureus strains (Table 5); assay type: cell-based; conditions: TN2613, strain TN 2613, resistance type Methicillin, agar dilution method, Mueller Hinton medium, inoculum 10^6CFU/mℓ, read-out: Minimal Inhibitory Concentration
[15] = system: Staphylococcus aureus TN 2684; assay: as above; assay type: cell-based; conditions: TN2684, strain TN 2684, resistance type Macrolide, agar dilution method, Mueller Hinton medium, inoculum 10^6CFU/mℓ, read-out: Minimal Inhibitory Concentration
[16] = Acute toxicities on mice (Table 7); conditions: mouse, in vivo, dihydrochlorides
[17] = system: Staphylococcus aureus 1840 S; assay: MIC against clinically isolated Staphylococcus aureus strains (Table 5); assay type: cell-based; conditions: strain 1840 S, resistance type None, agar dilution method, Mueller Hinton medium, inoculum 10^6CFU/mℓ, read-out: Minimal Inhibitory Concentration
[18] = system: Staphylococcus aureus TN 2687; assay: as above; assay type: cell-based; conditions: TN2687, strain TN 2687, resistance type Macrolide, agar dilution method, Mueller Hinton medium, inoculum 10^6CFU/mℓ, read-out: Minimal Inhibitory Concentration
[19] = system: Pseudomonas aeruginosa P-9; assay: Therapeutic effects on infectious diseases in mice (Table 6); assay type: in vivo; conditions: P9, sc; mice infected with Pseudomonas aeruginosa P-9; route Subcutaneous; dihydrochlorides
[20] = system: Staphylococcus aureus TN 2688; assay: MIC against clinically isolated Staphylococcus aureus strains (Table 5); assay type: cell-based; conditions: TN2688, strain TN 2688, resistance type Macrolide, agar dilution method, Mueller Hinton medium, inoculum 10^6CFU/mℓ, read-out: Minimal Inhibitory Concentration
[21] = system: Acinetobacter calcoaceticus IFO 13006; assay: Antibacterial spectrum, MIC on agar (Table 3); assay type: cell-based; conditions: Bacto-Antibiotic Medium 3 + yeast extract + agar, inoculum approx. 10^6 CFU/mℓ, dihydrochlorides, listed as C
Source text: as §1

[22] = system: Staphylococcus aureus FDA209P; assay: Antibacterial spectrum, MIC by agar dilution method (Table 4); assay type: cell-based; conditions: medium B-TSA (10% horse serum/TSA), inoculum 10^8 CFU/mℓ, dihydrochlorides, listed as C
Source text: as §1

[23] = system: Staphylococcus aureus 308A-1; assay: as above; assay type: cell-based; conditions: medium TSA, inoculum 10^8 CFU/mℓ, dihydrochlorides, listed as C
Source text: as §1

[24] = system: Streptococcus pyogenes E-14; assay: as above; assay type: cell-based; conditions: medium B-TSA (10% horse serum/TSA), inoculum 10^8 CFU/mℓ, dihydrochlorides, listed as C
Source text: as §1

## CC=CC=CC(=O)NCC(O)CC(N)CC(=O)NCCC(=N)N (stereo not shown) [TAN-749A]
Escherichia coli 0-111; Escherichia coli, 0111, sc, read-out: ED50
  ED50: 67.2 mg/kg
[1]
  MIC: 3.13 µg/mL (≈ 9.62 µM)
[2]
  MIC: > 100 µg/mL
[3]; Pseudomonas aeruginosa, IFO3080, Pseudomonas aeruginosa IFO 3080, read-out: Minimal Inhibitory Concentration
  MIC: 25 µg/mL
[4]; Staphylococcus aureus, FDA209P, read-out: Minimal Inhibitory Concentration
  MIC: 50 µg/mL
[5]; Citrobacter freundii, IFO12681, Citrobacter freundii IFO 12681, read-out: Minimal Inhibitory Concentration
  MIC: ≥ 100 µg/mL
[6]
  MIC: > 100 µg/mL
[7]
  MIC: 100 µg/mL
[8]
  MIC: > 100 µg/mL
Escherichia coli T7 [9]
  ED50: 50.8 mg/kg
[10]
  ED50: 17.7 mg/kg
[11]
  MIC: 12.5 µg/mL (≈ 38.4 µM)
Escherichia coli T7 [12]; Escherichia coli, T7, Escherichia coli T7, medium TSA, read-out: Minimal Inhibitory Concentration
  MIC: 50 µg/mL (≈ 154 µM)
[13]
  MIC: 100 µg/mL (≈ 307 µM)
[14]
  MIC: 6.25 µg/mL (≈ 19.2 µM)
[15]
  MIC: 6.25 µg/mL (≈ 19.2 µM)
[16]; route Oral
  LD50: 2000 to 4000 mg/kg
[16]; sc, route Subcutaneous
  LD50: ~500 mg/kg
[17]
  MIC: 12.5 µg/mL (≈ 38.4 µM)
[18]
  MIC: 6.25 µg/mL (≈ 19.2 µM)
[19]
  ED50: 31 mg/kg
[20]
  MIC: 6.25 µg/mL (≈ 19.2 µM)

## CC=CC=CC(=O)NCC(O)CC(N)CC(=O)NCCC(=N)N (stereo not shown) [TAN-749C]
Escherichia coli 0-111; listed as C
  ED50: 50 mg/kg
[21]
  Minimal Inhibitory Concentration: >100 µg/mL
[3]; Pseudomonas aeruginosa IFO 3080, listed as C
  Minimal Inhibitory Concentration: 50 µg/mL
[4]; listed as C
  Minimal Inhibitory Concentration: >100 µg/mL
[5]; Citrobacter freundii IFO 12681, listed as C
  Minimal Inhibitory Concentration: >100 µg/mL
Escherichia coli T7 [12]; Escherichia coli T7, medium TSA, listed as C
  Minimal Inhibitory Concentration: >100 µg/mL
[22]
  Minimal Inhibitory Concentration: >100 µg/mL
[23]
  Minimal Inhibitory Concentration: >100 µg/mL
[24]
  Minimal Inhibitory Concentration: 100 µg/mL
